Like-named read-outs stand apart in the source and are kept apart here.
How the values were obtained:
[1] = system: permeability of blood brain barrier and infiltration of white blood cells to cerebrospinal fluid caused by arachidonic acid; test: arachidonic acid-induced central nervous system inflammation (CSF volume and WBC counts via subarachnoid cannula); type: in vivo, rat
Description: To investigate the role of leukotriene antagonists in the treatment of inflammation, a sensitive and quantitative method to measure inflammation for the central nervous system was developed. Important changes in the inflammatory process can be monitored, as both the permeability of blood brain barrier (BBB) and the infiltration of white blood cells (WBC) to cerebrospinal fluid (CSF) caused by arachidonic acid can be measured over time from the same experimental animal. In particular, the effect of the leukotriene C4 and D4 antagonist, pranlukast, was studied using this method. Changes in the inflammatory process of both the permeability of BBB and the infiltration of white blood cells (WBC) caused by administering arachidonic acid as a nociceptive stimulus were observed.
Male rats, approximately 350-400 g, were anesthetized with sodium pentobarbital at a dose of 50 mg/kg intraperitoneally (i.p.). Animals were then placed in a stereotaxic unit. Fur from the top of the head to neck was shaved. The study area was disinfected with 70% ethanol followed by a 10% providone-iodine solution. Skin and muscle over the cervical cord were dissected until cervical vertebrae were exposed. A hole was made using a 23 G3/4 needle passing through the dura via the cisterna magna. One end of a 2-3 mm PE10 cannula (0.011 “I.D., 0.007” thick, 0.024″ O.D., 6.5 cm long) was inserted into the subarachnoid space at the cervical cord so as to avoid damage to neuronal tissue (FIG. 3). The cannula was fixed with cyanoacrylic glue to the peripheral tissue. The other end of PE10 was used for administration of a nociceptive stimulus, such as arachidonic acid (AA; 3.25 μg/2 μl) and subsequently for collecting cerebrospinal fluid (CSF) every thirty minutes thereafter during the 11-hour experimental period. The cannula filled with CSF immediately after the cannulation.
Air was infused to inject AA to the subarachnoid space. The muscles and skin were closed with surgical staples. The rat was then removed from the stereotaxic unit and placed on a heat pad and continuously monitored.
In the interaction study, the leukotriene C4 and D4 antagonist, pranlukast, was administered (490 mg/kg, i.p.) thirty minutes before administration of arachidonic acid (AA). If the effects of the anesthesia appeared to be wearing off, an additional 0.05-0.1 ml pentobarbital (50 mg/ml, i.p.) dose was administered. If at any time during the experiment, the animal appeared to be in pain or distress, the study was immediately stopped and the animal was euthanized.
In the present study, the volume (μl) of cerebrospinal fluid (CSF) and white blood cell (WBC) counts in CSF was measured every thirty minutes for 11 hours from the same rat. One side of the cannula (PE10) was inserted into the subarachnoid space under pentobarbital anesthesia, avoiding neuronal damage (FIG. 3). If the brain tissue is damaged, the volume of CSF and WBC increases immediately without the administration of arachidonic acid. Since there are no WBC in the CSF in the normal rat, only rats that had no WBC in the CSF immediately after the cannulation were used. Another side of the cannula remained open and was used for the administration of nociceptive stimuli (arachidonic acid, LPS, dextran, etc.) and subsequently for collecting the CSF every thirty minutes during the experiment. The CSF volume was measured using a micropipette and WBC in the CSF were counted by means of a hemacytometer.

[2] = in vivo; cited from earlier work
[3] = system: dextran-induced rat paw edema; test: dextran-induced rat paw edema; type: in vivo
rat ischemia model = test: rat ischemia model, reversible 30 minute occlusion of both carotid arteries followed by reperfusion; type: in vivo; details: pre-treatment
Method: One of 4-5 rats survived for one week when pranlukast (450 mg/kg i.p.) was administered 30 minutes before the occlusion.

[4] = system: infiltration of WBC into the CSF caused by interleukin-6; test: interleukin-6-induced infiltration of WBC into the CSF in the intact dog; type: in vivo; details: pretreatment, three different doses
Description: Additionally, increased infiltration of WBC into the CSF caused by interleukin-6 were inhibited by pretreatment of pranlukast (administered at three different doses) in the intact dog.

[5] = system: capillary permeability and extravasation of white blood cells and tumor cells from the capillary; test: interaction study: arachidonic acid-induced capillary permeability and extravasation into CSF (model of metastasis); type: in vivo, rat
Method: (§1) To test for inhibition of metastasis, pranlukast is administered orally (instead of intraperitoneally as was done in Example 2) before intravenous injection of the cancer cells. Arachidonic acid (AA) is then administered to the subarachnoid space two hours after pranlukast administration. The volume of CSF, white blood cell counts and cancer cell counts in the CSF are measured every 30 minutes.
(§2) Rats were anesthetized by sodium pentobarbital (50 mg/kg i.p.).
(§3) A femoral vein was exposed and a polyethylene tube filled with 0.002% heparin in saline was inserted. The other end of the polyethylene tube was connected to a three way cock valve for the intravenous injection of cancer cells. The animal was then placed in a stereotaxic unit (Type SRS-6 produced by Narishige Scientific Instrument Lab). Fur from the top of the head to the neck was shaved. The study area was disinfected with 70% ethanol. Skin and muscle over the cervical vertebrae were exposed. A hole was made using an 18 G×1 ½ needle passing through the dura via the cisterna magna. One end (2-3 mm) of an SP10 tube (5-6 cm long) was inserted into the subarachnoid space. The cannula was fixed with cyanoacrylic glue to the peripheral tissue. The other end of the SP10 tube was used for administration of arachidonic acid (8.16 ng/2 μl of saline) and subsequently for collecting cerebrospinal fluid (CSF) every thirty minutes thereafter for 1-2 hours in the in vivo morphological study and for 8 hours in the interaction studies.
As a capsule of Onon contains 112.5 mg of pranlukast, the powder from two capsules was stirred in 2.295 ml of deionized water with the electric mixer immediately before oral administration. The volume of administration of pranlukast was 5 ml/kg (dose=490 mg/kg).
The number of cancer cells were prepared to 1/100 of the number of neutrophils in each rat using PBS. Because of body weight (400±50 g), the number of cancer cells were between 1.88×10^4 and 2.43×10^4 and the volume of administration of cancer cell was adjusted to 1 ml for each rat.
Arachidonic acid was dissolved in saline and 816.25 ng/2 μl was administered for each rat.
Three different treatments were administered as follows;
1st treatment was pranlukast (490 mg/kg p.o.) or deionized water (p.o.).
2nd treatment was with cancer cells or PBS
3rd treatment was with arachidonic acid or saline.
The first treatment was administered 2 hours before arachidonic acid. The second treatment (cancer cells i.v.) was administered 2-3 minutes before arachidonic acid. Two canula in each animal to the femoral vein and to the subarachnoid space were inserted between the 1st treatment and 2nd treatment.
The number on the right side of table corresponds to that of the figures for the results. Four rats were used for each group.
(§4) The volume (μl) of CSF, WBC counts, and cancer cells counts was measured after the 3rd treatment for 8 hours.
To analyze whether or not human cancer cells, as foreign substances, affect the immune system in rats, each parameter, i.e., white blood cells counts, tumor cells counts and CSF volume with rat cancer cells (RCN9) was compared with the corresponding parameters of COLO201, MKN 74, and QG56, respectively, using area under time action curves and analysis of variance (Dunnet). Probability value was p<0.05 to be significant.

[6] = system: Colo 201 (colon cancer) cells; test: interaction study with Colo201 cancer cells i.v.; type: in vivo, human
Method: as §1
(§5) Cultured human cancer cell lines, Colo 201 (colon cancer) and MKN 74 ([…]), and a cultured rat cancer cell line RCN9 were purchased from Health Science Research Resources Bank (Rinku-minamihama 2-11, Sennan-shi, Osaka, 590-0535, Japan). Human lung cancer cell line QG56 was a gift from Dr. Yukito Ichinose, Department of Laboratory Medicine, Kyusyu Cancer Center, Hukuoka, Japan. Cells were cultured at 37° C. and 5% CO2, in RPMI-1640 (SIGMA, MO, USA) supplemented with 5% fetal bovine serum, 2 mM L-glutamine (Gibco), 100 units penicillin, 100 μg/ml streptomycin (Gibco Invitrogen Corp., Grand Island, N.Y., USA).
as §2
as §3, with “The other end of the SP10 tube was used for administration of arachidonic acid (8.16 ng/2 μl of saline) and subsequently for collecting cerebrospinal fluid (CSF) every thirty minutes thereafter for 1-2 hours in the in vivo morphological study and for 8 hours in the interaction studies.” left out
as §4

[7] = system: MKN 74 (lung cancer) cells; test: interaction study with MKN74 cancer cells i.v.; type: in vivo, human; details: pranlukast-MKN74-arachidonic acid, 490 mg/kg p.o., rat
Method: as §1, §5, §2
as §3, with “The other end of the SP10 tube was used for administration of arachidonic acid (8.16 ng/2 μl of saline) and subsequently for collecting cerebrospinal fluid (CSF) every thirty minutes thereafter for 1-2 hours in the in vivo morphological study and for 8 hours in the interaction studies.” left out
as §4

MKN 74 cells = test: interaction study with MKN74 cancer cells i.v.; type: in vivo, human; details: pranlukast-MKN 74-saline
Method: as §1, §5, §2
as §3, with “The other end of the SP10 tube was used for administration of arachidonic acid (8.16 ng/2 μl of saline) and subsequently for collecting cerebrospinal fluid (CSF) every thirty minutes thereafter for 1-2 hours in the in vivo morphological study and for 8 hours in the interaction studies.” left out
as §4

[8] = system: lung cancer cell line QG56; test: interaction study with QG56 cancer cells i.v.; type: in vivo, human
Method: as §1, §5, §2
as §3, with “The other end of the SP10 tube was used for administration of arachidonic acid (8.16 ng/2 μl of saline) and subsequently for collecting cerebrospinal fluid (CSF) every thirty minutes thereafter for 1-2 hours in the in vivo morphological study and for 8 hours in the interaction studies.” left out
as §4

[9] = system: RCN-9, a colon cancer cell line; test: interaction study with RCN9 cancer cells i.v.; type: in vivo, rat
Method: as §1, §5, §2
as §3, with “The other end of the SP10 tube was used for administration of arachidonic acid (8.16 ng/2 μl of saline) and subsequently for collecting cerebrospinal fluid (CSF) every thirty minutes thereafter for 1-2 hours in the in vivo morphological study and for 8 hours in the interaction studies.” left out
as §4

rats [10] = details: cited from earlier work
mice = details: cited from earlier work
rats [11] = details: cited from earlier work; remark: listed apart in the source
[12] = 20 mg/kg p.o., cited from earlier work
[13] = 490 mg/kg p.o., eight hours after arachidonic acid
[14] = pranlukast (490 mg/kg p.o.)-PBS-arachidonic acid (816 ng/2 μl), FIG. 11
[15] = pranlukast-Colo201-arachidonic acid, 490 mg/kg p.o., rat
[16] = pranlukast-QG56-arachidonic acid, 490 mg/kg p.o., rat
[17] = pranlukast-RCN9-arachidonic acid, 490 mg/kg p.o., rat

CCCCC/C=C\C/C=C\C/C=C\C/C=C\CCCC(=O)O [arachidonic acid, Arachidonic acid]
maximum CSF volume after administration ([1]; arachidonic acid 3.2 μg/2 μl into subarachnoid space, collected every thirty minutes, rat): 100 to 120 µL
CSF volume maintained for every thirty minutes ([1]; arachidonic acid 3.2 μg/2 μl, during 4.0-5.0 hours post-administration): 60 to 80 µL
time to peak / maximum CSF volume ([1]; arachidonic acid into subarachnoid space, rat): ≤ 3.5 h

CC(C)(O)c1ccccc1CC[C@@H](SCC1(CC(=O)O)CC1)c1cccc(/C=C/c2ccc3ccc(Cl)cc3n2)c1 [montelukast]
passage of the blood-brain barrier [2]: does not pass, or passes the blood-brain barrier at most at a very minimal level

O=C(Nc1cccc2c(=O)cc(-c3nnn[nH]3)oc12)c1ccc(OCCCCc2ccccc2)cc1 [pranlukast]
inhibition of dextran-induced paw edema ([3]; about 490 mg/kg, administered intraperitoneally): completely inhibited
inhibition of dextran-caused paw edema ([3]; about 490 mg/kg, administered orally (FIG. 2)): completely inhibited
inhibition of dextran-induced rat paw edema ([3]; dose dependence): inhibited by pranlukast in a dose-dependent fashion
inhibition of inflammation caused by arachidonic acid ([1]; 450 mg/kg i.p., arachidonic acid 3.25 μg/2 μl): completely inhibits
inhibition of the increase of CSF volume ([1]; 490 mg/kg i.p. thirty minutes before arachidonic acid (3.25 μg/2 μl) into the subarachnoid space, rat): completely inhibited
inhibition of the permeability of the brain capillary marked by WBC infiltration ([1]; 490 mg/kg i.p. thirty minutes before arachidonic acid, rat): completely inhibited
survival (rat ischemia model): longer survival
increased infiltration of WBC into the CSF caused by interleukin-6 [4]: inhibited
area under the time action curve, CSF [5, 13]: zero
area under the time action curve, white blood cell counts [5, 13]: zero
area under the time action curve, tumor cell counts ([5]; 490 mg/kg p.o., eight hours after arachidonic acid, tumor cells i.v.): zero
extravasation of white blood cells caused by arachidonic acid [5, 14]: inhibited
increased capillary permeability caused by arachidonic acid [5, 14]: inhibited
effect of pranlukast by itself on tumor/WBC counts and CSF volume ([5]; pranlukast-PBS-saline, 490 mg/kg p.o., no arachidonic acid): no effect
extravasation of tumor cells [6, 15]: significantly inhibited
increasing capillary permeability [6, 15]: significantly inhibited
effect when cancer cells present without arachidonic acid ([6]; pranlukast-Colo201-saline): did not have any effect
extravasation of tumor cells [7]: significantly inhibited
increasing capillary permeability [7]: significantly inhibited
effect when cancer cells present without arachidonic acid (MKN 74 cells): did not have any effect
extravasation of tumor cells [8, 16]: significantly inhibited
increasing capillary permeability [8, 16]: significantly inhibited
effect when cancer cells present without arachidonic acid ([8]; pranlukast-QG56-saline): did not have any effect
extravasation of tumor cells [9, 17]: significantly inhibited
increasing capillary permeability [9, 17]: significantly inhibited
effect when cancer cells present without arachidonic acid ([9]; pranlukast-RCN9-saline): did not have any effect
LD50 (rats [10]; p.o.): > 2000 mg/kg
LD50 (rats [10]; s.c.): > 2000 mg/kg
LD50 (mice; p.o.): > 2000 mg/kg
LD50 (mice; s.c.): > 2000 mg/kg
behavior, changes in body weight, and food intake compared with control group (rats [11]; repeated administration 30, 100, 300, 1000 mg/kg/day p.o. for three months and six months): normal
urine examination and histopathological examinations (rats [11]; repeated administration): normal
behavior, changes in body weight, and food intake compared with control group (rats [11]; single administration 30, 100, 300, 1000 mg/kg p.o.): normal
urine examination and histopathological examinations (rats [11]; single administration): normal
pranlukast in blood 24 hours after administration ([12]; 24 hours): no pranlukast was observed
time at which maximum blood concentration was attained [12]: within one hour
time the maximum blood concentration was maintained [12]: at least 5 hours
passage of the blood-brain barrier [2]: does not pass, or passes the blood-brain barrier at most at a very minimal level

COc1cc(C(=O)NS(=O)(=O)c2ccccc2C)ccc1Cc1cn(C)c2ccc(NC(=O)OC3CCCC3)cc12 [zafirlukast]
passage of the blood-brain barrier [2]: does not pass, or passes the blood-brain barrier at most at a very minimal level

Reference: patent US20080206203A1, “Method for Inhibiting Tumor Metastasis” (Inflammation Research Center Company Ltd., priority 2004, published 2008)
